Experimental data reported in patent publication US4387087A, “Cationic lipophilic complexes of ^99m Tc and their use for myocardial and hepatobiliary imaging” (priority 1980, dated 1983).
Several values for one entry are separate records, joined by “and”; a condition that tells them apart may be missing. Equal entries are not always repeated.

Tests used:
Assay type in all cases: in vivo
[1] = Myocardial imaging in a normal mongrel dog (Examples 4 and 5)
Description: For example, time dependent scintiscans of the chest region of a patient can be used. A computer interface, 16 crystal, Ohio Nuclear Spectrometer, is used for these scans and about 5 mCi of a given radiopharmaceutical is injected; blood samples are concurrently collected via an indwelling intravenous catheter in order to determine blood clearance rates. Time dependent tissue distribution studies are then conducted.

[2] = Time dependent myocardial and gallbladder distributions, computer analysis of scintigraphic data (Example 7, FIG. 3); settings: dog
Description: FIG. 3 compares the gallbladder uptake and heart clearing of 99m-Tc (diars)2 Cl2^+ with that of 99m-Tc (diars)2 Br2^+.
(§1) The two title complexes were injected into a dog as described for the complex of Example 4. […] These differences are graphically illustrated in FIG. 3, wherein are plotted time dependent myocardial and gallbladder distributions obtained by computer analysis of scintigraphic data; data for a given complex are normalized, but comparative data between complexes are not.

[3] = Blood clearance curves (Example 7, FIG. 4); settings: dog
Description: It is clear that these two chemically similar agents are somewhat differentiated in the biological system.
Imaging of the myocardium or the hepatobiliary system can then be carried out (after waiting for appropriate periods of time to permit blood clearance of the radiopharmaceutical), by standard scanning techniques (Andres, J. T. et al., "Nuclear Medicine", Wiley & Sons, N.Y., 1977; "Basic Science Principles of Nuclear Medicine", Boyd, C. M. and Dalrymple, G. V., eds., Morby, St. Louis, 1974). For example, time dependent scintiscans of the chest region of a patient can be used. A computer interface, 16 crystal, Ohio Nuclear Spectrometer, is used for these scans and about 5 mCi of a given radiopharmaceutical is injected; blood samples are concurrently collected via an indwelling intravenous catheter in order to determine blood clearance rates. Time dependent tissue distribution studies are then conducted.
as §1

[4] = Hepatobiliary imaging in a mongrel dog (Example 6, FIGS. 1 and 2)
Description: FIG. 2 is a schematic describing the photograph of FIG. 1. Both the photograph and accompanying schematic were taken after the complex had cleared the blood (5 minutes after injection), entered the liver and started clearing the liver and entering the gallbladder (10 minutes after injection).
The title complex was injected in the same vehicle as in Example 4 into a mongrel dog and images were obtained by positioning a camera directly over the chest of the dog.

[5] = Tissue distribution studies using normal female Sprague-Dawley rats (Table 1)

In the case of C[P+]1(C)CC[P+](C)(C)[99Tc-3]12([Br])([Br])[P+](C)(C)CC[P+]2(C)C [[99m-Tc(DMPE)2 Br2]^+, [99m-Tc(DMPE)2 Br2]Br], the “Myocardial uptake by the heart” value ([1]; same conditions as Example 4) is reported as “Myocardial uptake by the heart of a normal mongrel dog was observed”.
With “trans-[Tc-99m(diars)2 Br2 ]Br [trans-[Tc(diars)2 Br2]Br]” the “gallbladder handling of the two agents” value ([2]; FIG. 3) was “the gallbladder handles these two agents differently”, the “gallbladder uptake (rate)” value ([2]; intravenous) was “relatively slow” and the “time post intravenous injection at which the myocardium is readily visualized” value ([2]; intravenous) was 20 to 40 min. For the same molecule, the “Blood clearance curves, comparison of the two complexes” value [3] was “biologically differentiated”, the “complex in the blood pool” value ([4]; 0 minutes, immediately after injection) was “most of the complex is in the blood pool which is predominantly in the heart chambers” and the “clearance from the blood” value ([4]; 1 minute after injection) was “begins to clear from the blood”. For the same molecule, the gallbladder uptake ([4]; 1 minute after injection) was “The gallbladder does not yet contain any activity”, the liver uptake ([4]; 1 minute after injection) was “starts to enter the liver” and the “clearance from the blood” value ([4]; 5 minutes) was “The complex is all gone from the blood”. The gallbladder uptake ([4]; 5 minutes) was “A small amount has begun to enter the gallbladder”, the heart image ([4]; 5 minutes) was “the heart image has disappeared” and the liver uptake ([4]; 5 minutes) was “most of it is in the liver”. For the same molecule, the gallbladder uptake ([4]; 10 minutes) was “The gallbladder has taken up most of the complex and appears brighter than even the liver”, the gallbladder uptake ([4]; 20 minutes) was “The gallbladder has taken up the bulk of the complex” and the liver activity ([4]; 20 minutes) was “the liver contains relatively little activity”. The gallbladder uptake ([4]; 30 minutes, FIGS. 1 and 2) was “the gallbladder has taken up the bulk of the complex”, the liver activity ([4]; 30 minutes, FIGS. 1 and 2) was “the liver contains relatively little activity” and the “time after injection at which the complex had cleared the blood” value ([4]; FIGS. 1 and 2) was 5 min. The “time after injection at which the complex started clearing the liver and entering the gallbladder” value ([4]; FIGS. 1 and 2) was 10 min, the “removal of the bulk of the activity” value [1] was “The bulk of the activity is taken out by the hepatobiliary system” and the “maximal myocardial uptake, time post injection” value ([1]; 50% ethanol/50% saline vehicle) was “about 20 minutes”. For the same molecule, the “visualization of the myocardium” value ([1]; high sensitivity colimator) was “clearly visualizing the myocardium”, the Blood ([5]; 10 min post dose) was 0.38(3) % of the dose/g and the “Femur Muscle” value ([5]; 10 min post dose) was 0.22(6) % of the dose/g. For the same molecule, the Kidney ([5]; 10 min post dose) was 3.1(6) % of the dose/g, the Liver ([5]; 10 min post dose) was 4.5(6) % of the dose/g and the Pancreas ([5]; 10 min post dose) was 1.0(3) % of the dose/g. The Heart ([5]; 10 min post dose, 10 min) was 2.3(5) % of the dose/g and 2.3 % of the dose/g, the Blood ([5]; 30 min post dose) was 0.27(3) % of the dose/g and the “Femur Muscle” value ([5]; 30 min post dose) was 0.29(3) % of the dose/g. The Heart ([5]; 30 min post dose) was 1.8(1) % of the dose/g, the Kidney ([5]; 30 min post dose) was 2.3(1) % of the dose/g and the Liver ([5]; 30 min post dose) was 2.9(6) % of the dose/g. For the same molecule, the Pancreas ([5]; 30 min post dose) was 1.2(2) % of the dose/g, the Blood ([5]; 60 min post dose) was 0.21(1) % of the dose/g and the “Femur Muscle” value ([5]; 60 min post dose) was 0.26(5) % of the dose/g. For the same molecule, the Heart ([5]; 60 min post dose) was 1.3(1) % of the dose/g, the Kidney ([5]; 60 min post dose) was 2.1(1) % of the dose/g and the Liver ([5]; 60 min post dose) was 2.7(3) % of the dose/g. For the same molecule, the Pancreas ([5]; 60 min post dose) was 0.9(1) % of the dose/g, the Blood ([5]; 120 min post dose) was 0.18(3) % of the dose/g and the “Femur Muscle” value ([5]; 120 min post dose) was 0.28(2) % of the dose/g. The Heart ([5]; 120 min post dose) was 1.0(1) % of the dose/g, the Kidney ([5]; 120 min post dose) was 1.9(1) % of the dose/g and the Liver ([5]; 120 min post dose) was 2.1(2) % of the dose/g. For the same molecule, the Pancreas ([5]; 120 min post dose) was 0.8(1) % of the dose/g.
